In brackets after ≈: the same amount, converted by molar mass. Like-named read-outs stand apart in the source and are kept apart here.
Assays:
[1] = tested on: Mycobacterium tuberculosis H37Rv CNCTC My 331/88 (ATCC 27294); details: cited from earlier work; for Antimycobacterial Activity MIC against Mtb H37Rv, Amide: previously published pyrazinecarboxamides, methodology not identical; for Antimycobacterial Activity MIC against Mtb H37Rv, Retro-amide: previously published N-pyrazinylbenzamides
[2] = tested on: Enterococcus faecalis CCM 4224 (ATCC 29212); test: Antibacterial microdilution broth, E. faecalis; type: cell-based; details: 48 h, read-out: MIC against Enterococcus faecalis
[3] = tested on: Pseudomonas aeruginosa CCM 3955 (ATCC 27853); test: Antibacterial microdilution broth, P. aeruginosa; type: cell-based; details: 48 h, read-out: MIC against Pseudomonas aeruginosa
[4] = tested on: Staphylococcus aureus CCM 4223 (ATCC 29213); test: Antibacterial microdilution broth, S. aureus; type: cell-based; details: 48 h, read-out: MIC against Staphylococcus aureus
[5] = tested on: Serratia marcescens 62-2016; test: Antibacterial microdilution broth, S. marcescens; type: cell-based; details: Serratia marcescens, 622016, 48 h; read-out: MIC against Serratia marcescens
[6] = tested on: Mycobacterium smegmatis DSM 43465 (ATCC 607); test: Antimycobacterial microdilution assay, M. smegmatis; type: cell-based; details: for MIC: Mycolicibacterium smegmatis
[7] = tested on: Klebsiella pneumoniae 64-2016; test: Antibacterial microdilution broth, K. pneumoniae; type: cell-based; details: Klebsiella pneumoniae, 642016, 48 h; read-out: MIC against Klebsiella pneumonia
[8] = tested on: Escherichia coli CCM 3954 (ATCC 25922); test: Antibacterial microdilution broth, E. coli; type: cell-based; details: 48 h, read-out: MIC against Escherichia coli
[9] = tested on: Staphylococcus aureus methicillin-resistant CCM 4750 (ATCC 43300); test: Antibacterial microdilution broth, MRSA; type: cell-based; details: 48 h, read-out: MIC against Staphylococcus aureus methicillin resistant
[10] = tested on: Mycobacterium aurum DSM 43999 (ATCC 23366); test: Antimycobacterial microdilution assay, M. aurum; type: cell-based; details: Middlebrook 7H9 broth, resazurin after 72 hours; for MIC: Mycolicibacterium aurum, 72 h
[11] = tested on: Staphylococcus epidermidis 112-2016; test: Antibacterial microdilution broth, S. epidermidis; type: cell-based; details: Staphylococcus epidermidis, 1122016, 48 h; read-out: MIC against Staphylococcus epidermidis
[12] = tested on: M. avium ssp. avium CNCTC My 80/72 (ATCC 15769); test: Antimycobacterial microplate alamar blue assay, M. avium; type: cell-based, Mycobacterium avium; details: for MIC: Mycobacterium avium, ATCC15769, pH 6.6, Middlebrook 7H9 broth pH 6.6, alamar blue, read-out: Antimycobacterial Activity MIC M. avium
[13] = in vitro; details: human
[14] = tested on: M. kansasii CNCTC My 235/80 (ATCC 12478); test: Antimycobacterial microplate alamar blue assay, M. kansasii; type: cell-based, Mycobacterium kansasii; details: for MIC: Mycobacterium kansasii
[15] = tested on: Mycobacterium tuberculosis H37Rv CNCTC My 331/88 (ATCC 27294); test: Antimycobacterial microplate alamar blue assay, M. tuberculosis H37Rv; type: cell-based; details: for MIC: Mycobacterium tuberculosis, pH 6.6, Middlebrook 7H9 broth pH 6.6, alamar blue, read-out: Antimycobacterial Activity MIC Mtb H37Rv
[16] = physchem
Procedure: (§1) Three compounds 6b, 9b and 13b were selected and their pKa values were determined experimentally using potentiometric and absorbance methods (Table 2).
(§2) For the spectrophotometric method, 1 μM solution of the compound in question was prepared in methanol. The spectra of the sample at several (at least seven) different pH values were measured against blank (water) using a Helios spectrophotometer (Unicam Cambridge). The pH valued covered the region in which all sample molecules were converted from ionized to molecular form or vice versa. Each cuvette contained 200 μL of the sample solution and 1.8 mL of the corresponding buffer. The pH values used and the absorbances allowed us to calculate the pKa of the sample according to the following equation: pKa=pH+log(Ai−A/A−Au) where A is the absorbance of the compound at the corresponding buffer, Ai is the absorbance of the ionized state of the compound and Au is the absorbance of the unionized state. The final pKa was the average of all the pKa at different pH values. For the potentiometric measurements, 1 μM solution of the compound in question was prepared in 3:2 water:methanol, with the addition of 100 μL of 0.1% NaOH. Then small amounts (100 μL) of 0.01% HCl were added repeatedly and the pH was measured each time using a pH meter (inoLab® pH 7110 Czech Republic). The inflection point of the titration curve determined the pKa.

[17] = physchem; remark: listed apart in the source
Procedure: as §1, §2

[18] = tested on: HepG2 cells; details: cited from earlier work
[19] = tested on: Lichtheimia corymbifera CCM 8077; test: Antifungal microdilution broth, L. corymbifera; type: cell-based; details: CCM8077, 48 h, read-out: MIC against Lichtheimia corymbifera
[20] = tested on: Trichophyton interdigitale CCM 8377 (ATCC 9533); test: Antifungal microdilution broth, T. interdigitale; type: cell-based; details: 72 h, read-out: MIC against Trichophyton interdigitale
[21] = tested on: Aspergillus flavus CCM 8363; test: Antifungal microdilution broth, A. flavus; type: cell-based; details: CCM8363, 48 h, read-out: MIC against Aspergillus flavus
[22] = tested on: C. parapsilosis CCM 8260 (ATCC 22019); test: Antifungal microdilution broth, C. parapsilosis; type: cell-based, Candida parapsilosis; details: Lodderomyces parapsilosis, 48 h; read-out: MIC against C. parapsilosis
[23] = tested on: C. krusei CCM 8271 (ATCC 6258); test: Antifungal microdilution broth, C. krusei; type: cell-based, Candida krusei; details: Pichia kudriavzevii, 48 h; read-out: MIC against C. krusei
[24] = tested on: C. tropicalis CCM 8264 (ATCC 750); test: Antifungal microdilution broth, C. tropicalis; type: cell-based; details: Candida tropicalis, 48 h; read-out: MIC against C. tropicalis
[25] = 48 h, Middlebrook 7H9 broth, resazurin after 48 hours, read-out: Antimycobacterial Activity MIC M. smeg
[26] = ATCC12478, pH 6.6, Middlebrook 7H9 broth pH 6.6, alamar blue, read-out: Antimycobacterial Activity MIC M. kansasii
[27] = Middlebrook 7H9 broth pH 6.6, alamar blue
[28] = ATCC12478, molar value printed beside μg/mL in text, read-out: MIC M. kansasii

Compound | MIC [6, 25] [mg/L] | MIC [10] [mg/L] | MIC [12] [mg/L] | IC50 at 24 h [13] [µM] | MIC [14, 26] [mg/L] | MIC [15] [mg/L] | melting point [°C] | further results
O=C(Nc1ccccc1)c1cncc(Cl)n1 [Amide R^1 6-Cl R^2 H] | – | – | – | – | – | – | – | Antimycobacterial Activity MIC against Mtb H37Rv, Amide [1]: >100 mg/L
COc1ccc(NC(=O)c2cnccn2)cc1 [Amide R^1 H R^2 4-OCH3] | – | – | – | – | – | – | – | Antimycobacterial Activity MIC against Mtb H37Rv, Amide [1]: 25 mg/L
O=C(Nc1ccccc1)c1cnccn1 [Amide R^1 H R^2 H] | – | – | – | – | – | – | – | Antimycobacterial Activity MIC against Mtb H37Rv, Amide [1]: 100 mg/L
O=C(O)c1cn(C2CC2)c2cc(N3CCNCC3)c(F)cc2c1=O [CPX] | 0.0625 to 0.125 | 0.00781 to 0.0156 (≈ 0.0236 to 0.0472 µM) | – | – | – | – | – | MIC [2]: 0.512 mg/L (≈ 1.55 µM); MIC [3]: 0.128 mg/L (≈ 0.386 µM); MIC [4]: 0.128 to 0.256 mg/L (≈ 0.386 to 0.773 µM); MIC [5]: 0.256 mg/L (≈ 0.773 µM); Antimycobacterial Activity MIC M. smeg ([6]; Middlebrook 7H9 broth, resazurin after 48 hours): 0.125 mg/L; MIC [7]: > 1.02 mg/L; MIC [8]: 0.008 mg/L (≈ 0.0241 µM); MIC [9]: 0.128 mg/L (≈ 0.386 µM); Antimycobacterial Activity MIC M. aurum [10]: 0.008 mg/L; MIC [11]: > 1.02 mg/L
COc1ccc(S(=O)(=O)Nc2cncc(Cl)n2)cc1 [Compound 6b, N-(6-chloropyrazin-2-yl)-4-methoxybenzenesulfonamide] | ≥ 500 | ≥ 500 | > 100 | > 1000 | 100 | > 100 | – | pKa [16]: 6.95; pKa [17]: 7.21
Cc1cc(C)c(S(=O)(=O)Nc2cncc(Cl)n2)c(C)c1 [Compound 9b, N-(6-chloropyrazin-2-yl)-2,4,6-trimethylbenzenesulfonamide] | ≥ 500 | ≥ 500 | > 100 | 180 | 50 | > 100 | 179.7 to 180.2 | pKa [16]: 6.32; pKa [17]: 6.38
O=S(=O)(Nc1cnccn1)c1ccc2c(c1)OCCO2 [Compound 11a, N-(pyrazin-2-yl)-2,3-dihydrobenzo[b][1,4]dioxine-6-sulfonamide] | ≥ 500 | 250 (≈ 852 µM) | > 100 | > 1000 | > 100 | > 100 | 264 to 267.1 | Antimycobacterial Activity MIC M. kansasii [14, 27]: >100 mg/L; MIC [14, 28]: > 305 µM
O=S(=O)(Nc1cncc(Cl)n1)c1ccc2c(c1)OCCO2 [Compound 11b, N-(6-chloropyrazin-2-yl)-2,3-dihydrobenzo[b][1,4]dioxine-6-sulfonamide] | ≥ 500 | ≥ 500 | > 100 | 778 | 25 | > 100 | 244.6 to 247 | MIC [14, 28]: 76.3 µM
O=S(=O)(Nc1cncc(Cl)n1)c1ccc(-c2ccccc2)cc1 [Compound 12b, N-(6-chloropyrazin-2-yl)-[1,1′-biphenyl]-4-sulfonamide] | ≥ 500 | ≥ 500 | > 100 | 302 | 12.5 | 100 (≈ 289 µM) | 229.3 to 230.3 | MIC [14, 28]: 36.1 µM
O=S(=O)(Nc1cnccn1)c1ccc2ccccc2c1 [Compound 13a, N-(pyrazin-2-yl)naphthalene-2-sulfonamide] | 62.5 | ≥ 500 | > 100 | > 500 | 50 | > 100 | 223.5 to 224.7 | MIC ([6]; read-out: MIC M. smegmatis): 219 µM
O=S(=O)(Nc1cncc(Cl)n1)c1ccc2ccccc2c1 [Compound 13b, N-(6-chloropyrazin-2-yl)naphthalene-2-sulfonamide] | 125 | 250 (≈ 782 µM) | > 100 | > 1000 | 50 | 50 (≈ 156 µM) | 204.6 to 207 | pKa [16]: 5.63; pKa [17]: 5.75
O=S(=O)(Nc1cnccn1)c1ccc2ncccc2c1 [Compound 14a, N-(pyrazin-2-yl)quinoline-6-sulfonamide] | ≥ 500 | ≥ 500 | > 100 | > 250 | 100 | > 100 | 249.4 to 252 | –
NNC(=O)c1ccncc1 [INH, reference compound] | – | – | 6.25 to 12.5 (≈ 45.6 to 91.1 µM) | – | – | 0.1 to 0.2 (≈ 0.729 to 1.46 µM) | – | Antimycobacterial Activity MIC M. avium [12, 27]: 12.5 mg/L; IC50 [18]: 79000 µM; MIC [14, 28]: 182 µM; Antimycobacterial Activity MIC Mtb H37Rv [15, 27]: 0.2 mg/L
NC(=O)c1cnccn1 [PZA, reference compound] | ≥ 500 | ≥ 500 | > 100 | – | > 100 | > 100 | – | IC50 [18]: > 10000 µM
O=C(Nc1cncc(Cl)n1)c1ccccc1 [Retro-amide R^1 6-Cl R^2 H] | – | – | – | – | – | – | – | Antimycobacterial Activity MIC against Mtb H37Rv, Retro-amide [1]: 25 mg/L
COc1ccc(C(=O)Nc2cnccn2)cc1 [Retro-amide R^1 H R^2 4-OCH3] | – | – | – | – | – | – | – | Antimycobacterial Activity MIC against Mtb H37Rv, Retro-amide [1]: >100 mg/L
O=C(Nc1cnccn1)c1ccccc1 [Retro-amide R^1 H R^2 H] | – | – | – | – | – | – | – | Antimycobacterial Activity MIC against Mtb H37Rv, Retro-amide [1]: >100 mg/L
C[C@@H]1[C@H](O)[C@@H](C)/C=C/C=C/C=C/C=C/C=C/C=C/C=C/[C@H](O[C@@H]2O[C@H](C)[C@@H](O)[C@H](N)[C@@H]2O)C[C@@H]2O[C@](O)(C[C@@H](O)C[C@@H](O)[C@H](O)CC[C@@H](O)C[C@@H](O)CC(=O)O[C@H]1C)C[C@H](O)[C@H]2C(=O)O [amphotericin B] | – | – | – | – | – | – | – | MIC [19]: 0.5 mg/L (≈ 0.541 µM); MIC [20]: 2 mg/L (≈ 2.16 µM); MIC [21]: 8 mg/L (≈ 8.66 µM); MIC [22]: 0.5 mg/L (≈ 0.541 µM); MIC [23]: 1 mg/L (≈ 1.08 µM); MIC [24]: 1 mg/L (≈ 1.08 µM)
CNC(C)C1CCC(N)C(OC2C(N)CC(N)C(OC3OCC(C)(O)C(NC)C3O)C2O)O1 (centres unmarked) [gentamicin] | – | – | – | – | – | – | – | MIC [2]: 8 mg/L (≈ 16.8 µM); MIC [3]: 0.5 mg/L (≈ 1.05 µM); MIC [4]: 1 mg/L (≈ 2.09 µM); MIC [5]: 2 mg/L (≈ 4.19 µM); MIC [7]: > 8 mg/L; MIC [8]: 1 to 2 mg/L (≈ 2.09 to 4.19 µM); MIC [9]: 16 to 32 mg/L (≈ 33.5 to 67 µM); MIC [11]: > 8 mg/L

Reference: publication PMC6982817, “Substituted N-(Pyrazin-2-yl)benzenesulfonamides; Synthesis, Anti-Infective Evaluation, Cytotoxicity, and In Silico Studies” (Molecules, 2019)
